Experimental data from patent US7897565B2, “Compositions for HCV treatment” (priority 2004, dated 2011).
Non-standard residues stand in square brackets, D forms with d. Residues, ends and D or L forms follow the SMILES beside them. ξ: configuration not given here. ξNMeBmt = C/C=C/C[C@@H](C)[C@@H](O)C(NC)C(=O)O; NMeL = CN[C@@H](CC(C)C)C(=O)O; NMeV = CN[C@H](C(=O)O)C(C)C; NMeA = CN[C@@H](C)C(=O)O; Abu = CC[C@H](N)C(=O)O; Sar = CNCC(=O)O

Tests used:
[1] = test system: HCV replicon cells clone A; test: nine-day viral RNA reduction assay (quantitative RT-PCR); format: cell-based, hepatitis C virus
Procedure: Analysis of the effect of combination treatment, are examined using nine-day viral RNA reduction assays. HCV replicon cells clone A are treated with compounds in DMEM supplemented with 10% FBS and 0.2% DMSO for 3, 6, or 9 days, then the total intracellular RNA is extracted, and the level of HCV RNA is determined by real-time quantitative RT-PCR (Taqman) using HCV-specific primers and probe as described above. For each treatment, the quantity of HCV RNA is normalized against the amount of total RNA extracted, which is determined in a Quant-iT assay (Molecular Probe). The log reduction of HCV RNA is calculated by comparing the level of HCV RNA in compound-treated cells to that of untreated cells.

[2] = target: human recombinant cyclophilin (Homo sapiens, UniProt P62937); test: competitive ELISA for binding to cyclophilin (Binding Ratio vs cyclosporin A); details: negative value = binding stronger than cyclosporin A
Sequence of human recombinant cyclophilin (P62937 whole entry): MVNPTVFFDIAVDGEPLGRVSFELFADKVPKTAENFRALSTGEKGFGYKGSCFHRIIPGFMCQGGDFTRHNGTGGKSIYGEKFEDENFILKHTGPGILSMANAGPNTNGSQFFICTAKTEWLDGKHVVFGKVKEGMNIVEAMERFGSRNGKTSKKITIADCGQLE
Procedure: A cyclosporin is considered as binding to cyclophilin if it binds to human recombinant cyclophilin at least one fifth as well as does cyclosporin A in the competitive ELISA test described by Quesniaux in Eur. J. Immunol. 1987 17:1359-1365. In this test, the cyclosporin to be tested is added during the incubation of cyclophilin with coated BSA-cyclosporin A and the concentration required to give a 50% inhibition of the control reaction without competitor is calculated (IC50). The results are expressed as the Binding Ratio (BR), which is the log to the base 10 of the ratio of the IC50 of the test compound and the IC50 in a simultaneous test of cyclosporin A itself.

Balb/c spleen cells = test: Mixed Lymphocyte Reaction (MLR), activity relative to cyclosporin A; format: cell-based, mice
Excerpt: Cyclosporins which bind strongly to cyclophilin but are not immunosuppressive have been identified. A cyclosporin is considered to be non-immunosuppressive when it has an activity in the Mixed Lymphocyte Reaction (MLR) of no more than 5%, preferably no more than 2%, that of cyclosporin A. The Mixed Lymphocyte Reaction is described by T. Meo in “Immunological Methods”, L. Lefkovits and B. Peris, Eds., Academic Press, N.Y. pp. 227-239 (1979). Spleen cells (0.5×10^6) from Balb/c mice (female, 8˜10 weeks) are co-incubated for 5 days with 0.5×10^6 irradiated (2000 rads) or mitomycin C treated spleen cells from CBA mice (female, 8˜10 weeks). The irradiated allogeneic cells induce a proliferative response in the Balb/c spleen cells which can be measured by labeled precursor incorporation into the DNA. […] The IC50 found for the test compound in the MLR is compared with that found for cyclosporin A in a parallel experiment. In addition, non-immunosuppressive cyclosporins lack the capacity of inhibiting CN and the downstream NF-AT pathway.

[3] = test system: HCV replicon cells clone A; format: cell-based, hepatitis C virus; details: 1 mg/ml G418
Procedure: HCV replicon cells clone A are treated with various concentrations of NIM811 and BILN2061 either alone or in combination in the presence of 1 mg/ml G418.

Compound	BR (Binding Ratio): log to the base 10 of the ratio of the IC50 of the test compound and the IC50 of cyclosporin A [2]	IR (Immunosuppressive Ratio), percentage of the activity relative to Cyclosporin A (Balb/c spleen cells) [%]	other results
C/C=C/C[C@@H](C)[C@@H](O)[C@H]1C(=O)N[C@@H](CC)C(=O)N(C)CC(=O)N(C)[C@@H]([C@@H](C)CC)C(=O)N[C@@H](C(C)C)C(=O)N(C)[C@@H](CC(C)C)C(=O)N[C@@H](C)C(=O)N[C@H](C)C(=O)N(C)[C@@H](CC(C)C)C(=O)N(C)[C@@H](CC(C)C)C(=O)N(C)[C@@H](C(C)C)C(=O)N1C [NIM811, [Melle]^4-Ciclosporin]	−0.2		log reduction of HCV RNA ([1]; 0.5 μM NIM811 alone, 9 days of treatment): 1.2 log; log reduction of HCV RNA ([1]; 1 μM NIM811 alone, 9 days of treatment): greater than 3 log
CC[C@@H]1NC(=O)C([C@H](O)[C@H](C)C/C=C/CO)N(C)C(=O)[C@H](C(C)C)N(C)C(=O)[C@H](CC(C)C)N(C)C(=O)[C@H](CC(C)C)N(C)C(=O)[C@@H](C)NC(=O)[C@H](C)NC(=O)[C@H](CC(C)C)N(C)C(=O)[C@H](C(C)C)NC(=O)[C@H](CC(C)C)N(C)C(=O)CN(C)C1=O (stereo partly shown) [[8′-hydroxy-MeBmt]^5-Ciclosporin]	0.35	1.8	
C/C=C/C[C@@H](C)[C@@H](O)C1C(=O)N[C@@H](CC)C(=O)N(C)CC(=O)N(C)[C@@H](CC(C)C)C(=O)N(C)[C@@H](C(C)C)C(=O)N(C)[C@@H](CC(C)C)C(=O)N[C@@H](C)C(=O)N[C@H](C)C(=O)N(C)[C@@H](CC(C)C)C(=O)N(C)[C@@H](CC(C)C)C(=O)N(C)[C@@H](C(C)C)C(=O)N1C (stereo partly shown) [[MeVal]^5-Ciclosporin]	0.4	5.3	
[Ethyl-Ile]^4-Ciclosporin	0.1		
COc1ccc2c(O[C@@H]3C[C@H]4C(=O)N[C@]5(C(=O)O)C[C@H]5/C=C\CCCCC[C@H](NC(=O)OC5CCCC5)C(=O)N4C3)cc(-c3csc(NC(C)C)n3)nc2c1 [BILN2061]			treatment time after which resistant colonies start to form [3]: 2 weeks
IFN-α			log reduction of HCV RNA ([1]; 5 U/ml IFN-α alone, 9 days): 1.2 log
CC=CCC(C)C(O)C1C(=O)NC(CC)C(=O)N(C)CC(=O)N(C)C(C(C)C)C(=O)NC(C(C)C)C(=O)N(C)C(CC(C)C)C(=O)NC(C)C(=O)NC(C)C(=O)N(C)C(CC(C)C)C(=O)N(C)C(CC(C)C)C(=O)N(C)C(C(C)C)C(=O)N1C (stereo not shown) [[MeVal]^4-Ciclosporin]	0.1		
[Ethyl-Val]^4-Ciclosporin	0		
C/C=C/C[C@@H](C)[C@@H](O)C1C(=O)N[C@@H](CC)C(=O)N(C)CC(=O)N(C)[C@@H](CC(C)C)C(=O)N[C@@H](C(C)C)C(=O)N(C)[C@@H](CC(C)C)C(=O)N[C@@H](C)C(=O)N[C@H](C)C(=O)N(C)[C@@H](CC(C)(C)O)C(=O)N(C)[C@@H](CC(C)C)C(=O)N(C)[C@@H](C(C)C)C(=O)N1C (stereo partly shown) [[γ-hydroxy-MeLeu]^9-Ciclosporin]	0.15	2.9	
C/C=C/C[C@@H](C)[C@@H](O)C1C(=O)N[C@@H](CC)C(=O)N(C)CC(=O)N(C)[C@@H](CC(C)C)C(=O)N[C@@H](C(C)C)C(=O)N(C)[C@@H](C)C(=O)N[C@@H](C)C(=O)N[C@H](C)C(=O)N(C)[C@@H](CC(C)C)C(=O)N(C)[C@@H](CC(C)C)C(=O)N(C)[C@@H](C(C)C)C(=O)N1C (stereo partly shown) [[MeAla]^6-Ciclosporin] (cyclo(A[dA][NMeL][NMeL][NMeV][ξNMeBmt][Abu][Sar][NMeL]V[NMeA]))	−0.4	3.2	
